The results in this text go back to patent US20050238580A1 (priority 2002, published 2005).

Data set [1] has as its target T1, intestinal lactase (Homo sapiens, UniProt P09848).
T1 construct: from tissue; host or cells: small-intestinal mucous membrane of living adult human volunteers (in vivo)
As to the kind of experiment: Excretion of xylose in urine of adult human volunteers after oral 4-galactosyl-xylose, colorimetric titration with fluoroglucinol. The format is in vivo. As for the experimental part:
The methodology consists of the oral administration of an aqueous solution of 4-galactosyl-xylose to humans after at least 8 hours of fasting. The amount of xylose present in the urine excreted is evaluated as of then, after a specific period of time. The methodology can be carried out likewise by evaluating the presence of xylose in blood evaluating it in plasma, or blood serum, prepared from a blood sample extracted after a period of time, after the intake of the disaccharide. The titration of xylose can be done by means of calorimetric analysis based on the reaction with fluoroglucinol and using as a target, either the basal urine or else the basal plasma or the basal blood serum, depending on the methodology that is used. Once the intake of 4-galactosyl-xylose has taken place, it is hydrolyzed by the intestinal lactase, in such a way that the products of this enzymatic reaction, galactose and xylose, are absorbed into the blood through the intestinal mucous membrane.
4-galactosyl-xylose is an in vivo substrate of human intestinal lactase. This has been shown in the first place by orally administering 1 g of 4-galactosyl-xylose dissolved in 50 ml of water to an adult volunteer (individual 1) who had fasted for 8 hours and with a normal tolerance to milk and milk products, in other words, with lactose tolerance. A basal urine sample was taken from this individual immediately before the intake of 4-galactosyl-xylose and urine was again collected after the intake thereof every hour for 8 hours, each sample showing the total urine excreted in each period of time. Xylose was titrated in all the samples by means of calorimetric analysis based on the reaction with fluoroglucinol and using basal urine as the target. […] The results of this experiment appear compiled in FIG. 3, where the amount of xylose evaluated in each sample is represented (white circles) and the amount of xylose that is being accumulated in urine over time is represented (black circles), calculated by adding to the amount of xylose evaluated in each sample, the amounts evaluated in all the preceding samples. In […] one can see: 1) That xylose is excreted in the urine of this individual after oral administration of 4-galactosyl-xylose; 2) That the excretion of xylose in urine was maximum after 2 hours and it was progressively accumulated in the urine after administration of this compound.
Excretion of xylose in urine by adult human volunteers with lactose tolerance varies according to the amount of the 4-galactosyl-xylose intake. This has been shown by administering 0.25 g, 0.5 g and 3 g of 4-galactosyl-xylose to an adult volunteer with lactose tolerance (individual 1, Example 4) and to an adult volunteer with lactose tolerance (individual 2, Example 5) under the same conditions as those described in Example 1 and likewise titrating xylose calorimetrically with fluoroglucinol in the urine excreted by both volunteers over time after the intake of the disaccharide. A free period of around one week was left between each intake of 4-galactosyl-xylose by the same individual. […] The results of these experiments are compiled in FIG. 4 panel A (for individual 1 and Example 4) and in FIG. 4 panel B (for individual 2 and Example 5), wherein the amount of xylose accumulated in urine after the intake of 4-galactosyl-xylose for each administered dose is represented. FIG. 4A includes the data obtained with the same individual after an intake of 1 g of the disaccharide coming from FIG. 3 so that a comparison can be made with the rest of the administered doses. In these FIGS. 4A and 4B one can see: 1) That the excretion of xylose in urine over time after the intake of 4-galactosyl-xylose increased as the amount administered to individual 1 (FIG. 4A), as well as to individual 2 (FIG. 4B) increased; That a dose of 0.25 g 4-galactosyl-xylose permitted easy detection of the presence of xylose in urine in either of these two individuals. […]

In data set [2] the target is T1, intestinal lactase. Description: Xylose in blood plasma of human volunteers after oral 4-galactosyl-xylose, colorimetric titration with fluoroglucinol. The format is in vivo. As for the experimental part: Oral administration of 3 g of 4-galactosyl-xylose to adult human volunteers with lactose tolerance gave rise to the gradual presence of xylose in blood plasma titrated calorimetrically with fluoroglucinol, that reached a maximum about 2 hours after the intake of the disaccharide. Oral administration of the same amount of 4-galactosyl-xylose to an adult human volunteer with lactose intolerance diagnosed as hypolactasic produced a significant reduction in the amount of xylose evaluated in blood plasma of this individual two hours after the intake of the disaccharide.
The evaluation of xylose in blood after the oral administration of 4-galactosyl-xylose permits non-invasive diagnosis of intestinal lactase deficiency. This has been shown by administering 3 g of 4-galactosyl-xylose to two volunteers with lactose tolerance [individual 1, Example 17 and individual 2, Example 18 (these individuals were also studied in Examples 3 to 6)] and to the hypolactasic individual 12 with lactose intolerance [Example 19 (this individual was also studied in examples 12 and 15]). Xylose was titrated colorimetrically with fluoroglucinol in blood plasma of blood samples obtained from these individuals prior to the intake of the disaccharide and after the intake thereof at approximately 1 hour intervals for 6 hours: in the hypolactasic individual a basal blood sample and another blood sample 2 hours after the intake of the 4-galactosyl-xylose disaccharide were taken. […] In view of the amount of xylose detected in the individual with lactose intolerance 2 hours after the intake of 4-galactosyl-xylose, 0.48 μg/100 μl of plasma and the sensitivity of the titration (minimum detection limit of xylose with fluoroglucinol of […]), the minimum volume of serum or plasma to reliably make the measurement is estimated to be 50 μl, which is equivalent to 0.2 ml of blood (2 to 3 drops).

T1 sequence (P09848 869-1927): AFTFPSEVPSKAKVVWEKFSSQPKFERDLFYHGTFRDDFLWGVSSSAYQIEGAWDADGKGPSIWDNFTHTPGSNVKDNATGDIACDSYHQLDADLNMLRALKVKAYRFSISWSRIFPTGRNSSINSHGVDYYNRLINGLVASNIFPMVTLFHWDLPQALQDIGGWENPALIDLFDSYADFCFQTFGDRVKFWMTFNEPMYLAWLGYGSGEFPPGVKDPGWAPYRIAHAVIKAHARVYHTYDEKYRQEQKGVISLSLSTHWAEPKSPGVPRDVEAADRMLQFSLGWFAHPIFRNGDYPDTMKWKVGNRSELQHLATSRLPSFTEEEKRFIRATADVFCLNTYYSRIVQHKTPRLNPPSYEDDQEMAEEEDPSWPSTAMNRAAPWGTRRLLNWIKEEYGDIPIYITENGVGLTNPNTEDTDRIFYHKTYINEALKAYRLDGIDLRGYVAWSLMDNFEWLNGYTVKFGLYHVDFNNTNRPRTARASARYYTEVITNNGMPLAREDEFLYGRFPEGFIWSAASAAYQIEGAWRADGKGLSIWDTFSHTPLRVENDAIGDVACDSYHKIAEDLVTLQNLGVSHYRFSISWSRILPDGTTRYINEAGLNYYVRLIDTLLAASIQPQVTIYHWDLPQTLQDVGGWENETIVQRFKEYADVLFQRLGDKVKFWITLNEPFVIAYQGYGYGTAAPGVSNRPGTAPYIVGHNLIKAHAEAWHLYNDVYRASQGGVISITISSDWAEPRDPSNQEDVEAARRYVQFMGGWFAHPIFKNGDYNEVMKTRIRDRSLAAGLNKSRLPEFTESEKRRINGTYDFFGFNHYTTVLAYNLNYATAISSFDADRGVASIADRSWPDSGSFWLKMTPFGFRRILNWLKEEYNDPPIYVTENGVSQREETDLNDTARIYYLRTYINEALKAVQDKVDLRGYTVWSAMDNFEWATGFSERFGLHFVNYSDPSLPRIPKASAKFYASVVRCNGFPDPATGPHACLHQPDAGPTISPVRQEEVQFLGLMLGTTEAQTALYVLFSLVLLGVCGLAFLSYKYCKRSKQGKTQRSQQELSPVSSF

For `OCC1O[C@@H](O[C@@H]2COC(O)C(O)[C@H]2O)C(O)[C@@H](O)[C@H]1O` (some centres unmarked), the “total xylose in urine 8 hours after intake, average value” amounted to 23.5 ± 2.0 mg on intestinal lactase [1] (female volunteers with lactose tolerance, 0.25 g oral) and 35.7 ± 2.0 mg at intestinal lactase [1] (male volunteers with lactose tolerance, 0.25 g oral). Also, the “reduction of xylose in urine versus average of tolerant females” value at intestinal lactase [1] (individual 5, 0.25 g oral, 8 hours) came out at 83%. In addition, the “total xylose in urine 8 hours after intake” value is listed as 4.08 mg on intestinal lactase [1] (individual 5, person with lactose intolerance from birth, 0.25 g oral) and 1.33 mg on intestinal lactase [1] (individual 12, hypolactasic person with lactose intolerance, 0.25 g oral). Also, the “reduction of xylose in urine versus average of tolerant males” value at intestinal lactase [1] (individual 12, 0.25 g oral, 8 hours) is 96%. For the same compound, on intestinal lactase [1] (individual 13, person with allergy to milk components, 0.25 g oral), the “total xylose excreted in urine after 8 hours” value is recorded as “the same total amount as the average of females with lactose tolerance”. Besides, the “dose dependence of excretion of xylose in urine” value at intestinal lactase [1] (individuals 1 and 2 with lactose tolerance, oral doses of 0.25 g, 0.5 g, 1 g and 3 g) is “increased with the amount”. In addition, the “reduction of xylose in plasma, individual 12 versus individual 1” value at intestinal lactase [2] (3 g oral, 2 hours) turned out to be 72%. The “reduction of xylose in plasma, individual 12 versus individual 2” value at intestinal lactase [2] (3 g oral, 2 hours) was 75%. In addition, on intestinal lactase [2] (hypolactasic individual 12, 3 g oral), the “xylose in blood plasma 2 hours after intake” value is 0.48 μg/100 μl of plasma. Also, the “xylose in blood plasma in a similar period of time (2 hours)” value is listed as 1.72 μg/100 ml of plasma on intestinal lactase [2] (individual 1 with lactose tolerance, 3 g oral) and 1.95 μg/100 ml of plasma at intestinal lactase [2] (individual 2 with lactose tolerance, 3 g oral). For the same compound, the “xylose in blood plasma after 6 hours” value on intestinal lactase [2] (individuals 1 and 2 with lactose tolerance, 3 g oral) is listed as “undetectable”.
